The source of these data is patent US20210077567A1, “Targeted Angiotensin 1-7 Peptide Conjugates and Formation and Use Thereof” (IDAHO STATE UNIVERSITY, priority 2019, published 2021).

Marks after values point to notes of the source that are not given here.

Data set [1] is described as follows: Stability of the conjugate in solution by HPLC-UV. Type of data set: physicochemical. The method, then: At 1, 3, 7, 10, 15, 30 days; 100 μL of the solutions were sampled and after adding stable Ang II as internal standard samples analyzed by HPLC-UV to monitor the stability of the conjugate over time. Table 3, below, provides the percent of the Ang peptide conjugate remaining in each sample after storage for 4 weeks.

The test system of data set [2] is adjuvant-induced arthritis. Nature of the data set: Adjuvant-induced arthritis rat model (body weight, paw and joint diameters, plasma NO). Particulars: for inflammation and swelling of paws and joints (in words): preventive and treatment groups; for Mean body weight (SD); body weight gain (%) compared with day 1 / Mean body weight (SD); body weight gain (%) after 7 days of dosing: inflamed animals. The format is in vivo, male Sprague Dawley rats. As for the experimental part:
(§1) The Ang peptide conjugate described in Example 1 was examined for anti-inflammatory effect on adjuvant-induced arthritis in a rat animal model. On day one, for induction of adjuvant arthritis, male Sprague Dawley rats were injected at the tail base with 0.2 mL of 50 mg/mL Mycobacterium butyricum. Arthritic animals were divided into 4 groups and treated with saline, Ang II, Ang 1-7 or Ang peptide conjugate. A group of healthy rats received vehicle as control group. Preventive and treatment groups subcutaneously received 200 μg/kg equitant dose daily from day one for 3 weeks or after emergence of arthritis for 1 week, respectively. Animals were monitored daily for their body weight, paw and joint diameters. Animals were then euthanized, plasma/tissues were harvested and analyzed for plasma nitric oxide (NO), and the RAS components.

A short description of data set [3]: Pharmacokinetic study, plasma half-life. Type of data set: in vivo, rats. The method, then:
(§2) Pharmacokinetic studies were conducted using rats for calculation of biological half-life and other pharmacokinetic parameters of the conjugates in comparison with native peptides. The tissue distribution of conjugates was conducted on main organs, such as bone (major target), heart, liver, kidney, lung, etc.

Data set [4] deals with mRNA of RAS components (ACE, ACE2, AT1R, Mas receptor) in cancer cell line HSSY1. Nature of the data set: Quantitative PCR of RAS component gene expression. Particulars: FIG. 12. The format is cell-based. The text has this: (§3) The viability of several different cancer cell lines including FUUR1, MoJo, SYO1, and the sarcoma cell line HSSY1 using the MTT assay across multiple concentrations and time points and compared with native Ang 1-7 as positive control and Ang II as negative control. The impact of Mas receptor activation by Ang peptide conjugate on gene expression of different components of the RAS, such as ACE1, ACE2, AT1R. Mas receptor was also studied using quantitative PCR using the different cancerous cell lines.

For a further data set, the system named is osteosarcoma tumors. The data set is described as follows: Osteosarcoma tumor-bearing mouse model, tumor size. The format is in vivo, mice. Particulars: s.c. twice daily, equivalent dose of Ang 1-7 of 400 μg/kg, three weeks; FIG. 13. The method, then: The Ang peptide conjugate described in Example 1 was examined for inhibition of the RAS in an advanced form of osteosarcoma. For the in vivo study, a group of mice bearing osteosarcoma tumors was divided into three different groups and subcutaneously dosed twice daily with vehicle (PEG 400: normal Saline, 3:2), Ang 1-7, or Ang peptide conjugate (equivalent dose of Ang 1-7 of 400 μg/kg) for three weeks. The tumor size was measured three times a week. Tumor tissues were harvested and kept in appropriate medium in −80° C. for further analysis of different cancer biomarkers.

Data set [5] concerns FUUR1, MoJo, SYO1 and HSSY1 cancer cell lines. The data set is described as follows: MTT viability/proliferation assay on cancer cell lines (Example 2). The format is cell-based. Particulars: all cell lines tested (FUUR1, MoJo, SYO1, HSSY1); multiple concentrations; FIG. 11.
Source text: as §3

Data set [6] is described as follows: Tissue distribution of radiolabeled peptides. Type of data set: in vivo. Particulars: rats, i.v. or s.c.; FIG. 9. The method, then:
as §2

In data set [7] the test system is cardiac ACE2, ACE and Mas receptor expression. Nature of the data set: Cardiac RAS component expression in adjuvant-induced arthritis rats. The format is in vivo. Particulars: for cardiac ACE2/ACE ratio: preventive treatment, FIG. 16, 17; for cardiac Mas receptor expression: treatment after establishment of inflammation, FIG. 18, 19. The method, then:
as §1, with “On” for “The Ang peptide conjugate described in Example 1 was examined for anti-inflammatory effect on adjuvant-induced arthritis in a rat animal model. On”

For data set [8], the system named is synovial sarcoma cell lines SYO1 and MoJo, renal carcinoma cell line FUUR1. The data set is described as follows: In vitro cell viability / anti-proliferative activity on cancer cell lines (Example 1). Type of data set: cell-based. Particulars: various concentrations, FIG. 6-8. The method, then:
Upon confirmation of final chemical structure of the active conjugates, the anti-proliferative activity was tested using different cancer cell lines, including synovial sarcoma cell lines SYO1 and MoJo, and the renal carcinoma cell line FUUR1. Results comparing the percent viability of the tested cell lines upon incubation with AngII, Ang1-7, or the Ang peptide conjugate are provided in FIG. 6 (SYO1), FIG. 7 (MoJo) and FIG. 8 (FUUR1). The cell lines were incubated with concentrations of the tested materials at various concentrations, as shown.

Where [9] appears, read: preventive arm, compared with day 1.
Where [10] appears, read: treatment arm, after 7 days of dosing.

With “Ang peptide conjugate: Ang 1-7 peptide bonded at N-terminus to 27-mer mono-disperse PEG(maleimide)2 spacer conjugated with a thiol-bisphosphonate”, the “percent of conjugate remaining” value turned out to be 98.4% in data set [1] (Acetate buffer (pH 5.5), 4 °C, 5 days); 98.0% in data set [1] (Acetate buffer (pH 5.5), 4 °C, 28 days); 94.3% in [1] (Acetate buffer (pH 5.5), 25 °C, 5 days); 93.3% in [1] (Acetate buffer (pH 5.5), 25 °C, 28 days); 99.8% in data set [1] (Acetate buffer (pH 5.5), −20 °C, 5 days); 99.5% in data set [1] (Acetate buffer (pH 5.5), −20 °C, 28 days). For the same substance, the “percent of conjugate remaining” value in data set [1] (D. D. Water (pH 6.5), 4 °C, 5 days) is recorded as 95.9%; in data set [1] (D. D. Water (pH 6.5), 4 °C, 28 days), 92.4%; in [1] (D. D. Water (pH 6.5), 25 °C, 5 days), 90.6%; in data set [1] (D. D. Water (pH 6.5), 25 °C, 28 days) it was 64.0%; in data set [1] (D. D. Water (pH 6.5), −20 °C, 5 days), 99.5%; in data set [1] (D. D. Water (pH 6.5), −20 °C, 28 days) it was 99.1%. Further, the “percent of conjugate remaining” value was found to be 91.9% in data set [1] (Phosphate buffer (pH 7.4), 4 °C, 5 days); 79.2% in data set [1] (Phosphate buffer (pH 7.4), 4 °C, 28 days); 72.8% in data set [1] (Phosphate buffer (pH 7.4), 25 °C, 5 days); 22.6% in data set [1] (Phosphate buffer (pH 7.4), 25 °C, 28 days); 99.2% in data set [1] (Phosphate buffer (pH 7.4), −20 °C, 5 days); 98.9% in data set [1] (Phosphate buffer (pH 7.4), −20 °C, 28 days). Besides, the “inflammation and swelling of paws and joints (in words)” value (“inflammation and swelling” for short) in data set [2] was “reduced the inflammation and swelling to a comparable level with the control group”. The results for the “Difference vs. Inf- Vehicle in body weight gain (%)” value (from here on “Difference vs. Inf- Vehicle … (%)”) in data set [2] (setting [9]) and in [2] (setting [10]) were 6.22% and 3.0%, respectively. Further, the “Mean body weight (SD); body weight gain (%) compared with day 1” value in [2] (preventive arm) is listed as 15.1 (12.0) %. For the same substance, the “plasma level of NO” value is reported as “reduce the elevated plasma level of NO” in [2] (preventive arm, 200 μg/kg s.c. daily from day one for 3 weeks, FIG. 14) and “reduce the elevated plasma level of NO” in [2] (treatment arm, 200 μg/kg s.c. daily for 1 week after emergence of arthritis, FIG. 15). Further, in [2] (treatment arm), the “Mean body weight (SD); body weight gain (%) after 7 days of dosing” value is listed as 7.3 (4.3) * %. Also, the “increase in plasma half-life as compared to the native peptide” value in data set [3] (after intravenous administration) was 10 fold. Also, in [3] (after subcutaneous injection), the “increase in half-life as compared to the native peptide” value was 15 fold. Further, in [3] (rats, FIG. 10), the “half-life compared with native peptides” value is given as “longer half-life”. Moreover, the ACE2 gene expression result in [4] is “significantly higher”. The ACE gene expression entry in data set [4] is listed as “enhanced to some level”. Besides, the AT1R gene expression result in data set [4] is on record as “enhanced to some level”. Moreover, the “Mas receptor gene expression” value in data set [4] is listed as “significantly higher”. For the same substance, in the data set with osteosarcoma tumors, the tumor growth inhibition result is reported as “potently inhibited tumor growth after 3-4 days”. In addition, the “effect on cell proliferation” value in data set [5] was “anti-proliferative effect was more pronounced”. Also, the “tissue distribution compared with native peptides” value in data set [6] was “higher affinity to thyroid and bone”. In addition, the “cardiac ACE2/ACE ratio” value in data set [7] is reported as “restored this balance”. Also, the “cardiac Mas receptor expression” value in data set [7] is on record as “restored this balance”. The “cell viability compared with native peptides” value in [8] is “superior activity”.
Take “Angiotensin 1-7 (DRVYIHP) [Ang 1-7, reference compound]”: the “inflammation and swelling” value in data set [2] was “reduced the inflammation and swelling to a comparable level with the control group”. Moreover, the “Difference vs. Inf- Vehicle … (%)” value in data set [2] (setting [9]) is recorded as 4.78%. Further, in [2] (preventive arm), the “Mean body weight (SD); body weight gain (%) compared with day 1” value is on record as 13.6 (8.8) %. The “Difference vs. Inf- Vehicle … (%)” value in [2] (setting [10]) stood at 5.7%. The “Mean body weight (SD); body weight gain (%) after 7 days of dosing” value in data set [2] (treatment arm) is on record as 10.0 (4.8) * %. In data set [4], the ACE2 gene expression entry is reported as “did not significantly change”, the ACE gene expression entry is “very large effect”, the AT1R gene expression result is “did not significantly change” and the “Mas receptor gene expression” value is “did not significantly change”. For the same substance, in the data set on osteosarcoma tumors, the tumor growth inhibition result is listed as “milder effect after 10 days”. In addition, in data set [5], the “effect on cell proliferation” value is “significant concentration dependent decrease on cell proliferation”. For the same substance, in data set [7], the “cardiac ACE2/ACE ratio” value is “restored this balance” and the “cardiac Mas receptor expression” value is listed as “restored this balance”.
For “Angiotensin II (DRVYIHPF; Angiotensin-2; UniProt P01019 25-32, looked up) [Ang II, native Angiotensin II peptide, pro-inflammatory agent, negative control]”, in data set [2], the “inflammation and swelling” value is listed as “made the situation worse”. The “Difference vs. Inf- Vehicle … (%)” value in [2] (setting [9]) came out at 4.32%. Besides, the “Mean body weight (SD); body weight gain (%) compared with day 1” value in data set [2] (preventive arm) is recorded as 13.2 (3.1) %. The “effect on cell proliferation” value in [5] is “remarkable proliferative effect”.
